Results published in patent US9241951B2, “Of gastrointestinal health, immunity and performance by dietary intervention” (BIOATLANTIS LTD, priority 2009, dated 2016).

Columns and labels:
Type in all cases: in vivo, pig
[1] = system: IL-6; test: Cytokine gene expression after ex-vivo LPS tissue challenge of ileum and colon, Example 5
Excerpt: (§1) 21 pigs with an initial weight of 17.9±2.2 Kg were assigned to one of the 3 dietary treatments: (T1) control; (T2) basal diet+300 ppm LAM; (T3) basal diet+600 ppm LAM. Experimental feeding continued for 21 days ad libitum. Diets were formulated to have similar digestible energy (DE) (14.4 MJ/Kg) and ileal digestible lysine (12.5 g/Kg).
(§2) Ileal and colonic tissues were sampled from the same location as described for digesta samples. Excised tissues were emptied by dissecting them along the mesentery and rinsing them using sterile phosphate buffered saline (PBS) (Oxoid). Tissue sections 1 cm^3, which had been stripped of the overlying smooth muscle were cut from each tissue. Two sections from each tissue were placed in 1 ml of Dulbecco's Modified Eagle's Medium (DMEM) (Gibco), one in the presence of bacterial lipopolysaccharide (LPS) (Sigma Aldrich) at a concentration of 10 μg/ml. The other tissue sample was used as a control and incubated in sterile DMEM in the absence of LPS. Both challenged and unchallenged tissues were incubated at 37° C. for 90 minutes before being removed, blotted dry and weighed. Approximately 1-2 g of porcine ileum and colon tissues were cut into small pieces and collected in 15 ml of RNAlater® (Applied Biosystems, Foster City, Calif.). RNAlater® was removed before storing the samples at −80° C. until used for RNA extraction.
(§3) Tissue samples for RNA extraction were removed from −86° C. and homogenised. 500 μl of lysis solution/2-ME was added to each sample and these were mechanically disrupted using one 5 mm stainless steel bead per sample. These were then placed in a Tissue Lyser (Qiagen) and lysates were homogenised for 3 mins and transferred to a GenElute Filtration Column (Sigma Aldrich) and RNA was extracted. 1 µg of total RNA was used for cDNA synthesis using oligo(dT)20 primer in a final reaction volume of 20 μl with Superscript™ III First-Strand synthesis system for reverse transcriptase-polymerase chain reaction (RT-PCR) (Invitrogen Life Technologies, Carlsbad, Calif.). At the last step of cDNA synthesis, treatment with E. coli RNase H (Invitrogen Corp.) was performed to digest the remaining RNA/mRNA template, resulting in the production of the single-stranded cDNA template for subsequent qRT-PCR reactions.
(§4) All porcine primers for the cytokine genes interferon gamma (IFN-γ), interleukin-1α (IL-1α), IL-6, IL-8, IL-10, IL-17, tumour necrosis factor (TNF-α), the mucin genes (MUCs 1, 2, 4, 5AC, 12, 13 and 20) and three reference genes, β-actin (ACTB), Glyceraldehyde-3-phosphate dehydrogenase (GAPDH) and Peptidylprolyl isomerase A (PPIA), were designed using Primer Express™ (PE Applied Biosystems, Foster City, Calif.) and synthesised by MWG Biotech (Milton Keynes, UK). These reference genes were previously validated for use in porcine tissue and qPCR was then carried out on the cDNA using the ABI PRISM 7900HT Fast sequence detection system for 96-well plates (Applied Biosystems, Foster City, Calif.). All samples were prepared in duplicate using SYBR Green Fast PCR Master Mix (Applied Biosystems, Foster City, Calif.), cDNA as template and specific primers for the genes selected. For each reaction 5 μl cDNA, 1.2 μl (forward and reverse primer mix, 5 μM), 10 μl Fast SYBR Green PCR Master Mix (PE Applied Biosystems, Foster City, Calif.) was added and made up to a final volume of 20 μl. The two step PCR program was as follows: 95° C. for 10 minutes for 1 cycle followed by 95° C. for 15 seconds and 60° C. for 1 minute for 40 cycles. The raw Ct values for the reference genes were converted to relative quantities using the formula Q=E ^ΔCt where E is the PCR efficiency of the assay and ^ΔCt is the value calculated for the difference between the lowest Ct value for each gene minus the Ct value of the sample in question. The relative quantities of the endogenous controls were then analysed for stability in geNorm (Vandesompele et al., 2002). […]

[2] = system: IL-1α; test: as above; settings: ileum, ex-vivo LPS challenge (10 μg/ml, 90 minutes)
Excerpt: as §1, §2, §3, §4

[3] = system: IL-8; test: as above
Excerpt: as §1, §2, §3, §4

[4] = system: TNF-α; test: as above; settings: ileum, ex-vivo LPS challenge (10 μg/ml, 90 minutes)
Excerpt: as §1, §2, §3, §4

[5] = system: IFN-γ; test: as above; settings: ileum, ex-vivo LPS challenge (10 μg/ml, 90 minutes)
Excerpt: as §1, §2, §3, §4

[6] = system: IL-17; test: as above; settings: ileum, ex-vivo LPS challenge (10 μg/ml, 90 minutes)
Excerpt: as §1, §2, §3, §4

[7] = system: IL-10; test: as above; settings: ileum, ex-vivo LPS challenge (10 μg/ml, 90 minutes)
Excerpt: as §1, §2, §3, §4

[8] = system: Lactobacilli; test: Microbial analysis of ileum and colon digesta, Example 5; settings: ileum; LAM 0-600 ppm
Excerpt: (§5) 21 pigs with an initial weight of 17.9±2.2 Kg were assigned to one of the 3 dietary treatments: (T1) control; (T2) basal diet+300 ppm LAM; (T3) basal diet+600 ppm LAM. Experimental feeding continued for 21 days ad libitum. Diets were formulated to have similar digestible energy (DE) (14.4 MJ/Kg) and ileal digestible lysine (12.5 g/Kg). Post-slaughter, digestive tract was removed by dissection and digesta was removed from the ileum. Each digesta sample was serially diluted in maximum recovery diluent (MRD, Oxoid, Basingstoke, UK), and spread plated onto selective agars. Bifidobacteria, Lactobacilli and Enterobacteria species were isolated according to the methods described by Pierce et al. (2005). Digesta samples used to measure VFA concentration were collected from the caecum and the same location in the ileum and colon. VFA analysis was performed using gas liquid chromatography (GLC) according to the method described by Pierce et al., (2005).

[9] = system: Enterobacteriaceae; test: as above
Excerpt: as §5

[10] = system: Bifidobacteria; test: as above; settings: ileum; LAM 0-600 ppm
Excerpt: as §5

[11] = Animal performance and nutrient digestibility, Example 5; settings: increasing LAM 0, 300, 600 ppm, 21 days
Excerpt: as §1

[12] = ileum, ex-vivo LPS challenge (10 μg/ml, 90 minutes)

laminarin
linear increase: IL-8 gene expression ([3]; colon, LPS-challenged tissue, increasing LAM)
increase: IL-6 expression ([1]; colon, LPS-challenged tissue, LAM 300 ppm)
decrease: Enterobacteriaceae ([9]; colon, LAM from Laminaria digitata, 300 and 600 ppm)
no effect: IL-6 gene expression [1, 12] | IL-1α gene expression [2] | IL-8 gene expression [3, 12] | TNF-α gene expression [4] | IFN-γ gene expression [5] | IL-17 gene expression [6] | IL-10 gene expression [7] | Lactobacilli populations [8] | Enterobacteriaceae populations ([9]; ileum, LAM 0-600 ppm) | Bifidobacteria populations [10] | nutrient digestibility coefficients (DM, OM, ash, N or GE) [11] | performance (food intake, daily gain or food conversion ratio) [11]
